# Reference: paper doi:10.1101/2024.03.08.584095v1, “LPOR and the membranes – evolutionary pathway towards prolamellar body formation” (biorxiv, 2024)
# What was measured:
# [1] = test system: T1, AtPORB_α10; assay: […] K fluorescence, Chlide/Pchlide ratio after […] s illumination, modified Michaelis-Menten fit; format: biochemical, Arabidopsis thaliana; settings: 5 µM Pchlide, 15 µM enzyme, no lipids, pH 7.1, room temperature; apparent analogue of Km
# T1 construct: gene PORB; AtPORB with helix alpha10 of SynPOR; pET15b, E. coli
# [2] = molecular target: T2, SynPOR (Synechocystis sp. PCC 6803, UniProt Q59987); assay: […] K fluorescence emission shift of Pchlide; format: binding; settings: 5 µM Pchlide, 15 µM enzyme, 200 µM dinucleotide, no lipids, pH 7.1
# T2 construct: gene por; recombinant, E. coli BL21(DE3)pRIL, cloned in a previous study; tag not described here
# [3] = molecular target: T3, AtPORB (Arabidopsis thaliana, UniProt P21218); assay: […] K fluorescence emission shift of Pchlide; format: binding; settings: 5 µM Pchlide, 15 µM enzyme, 200 µM NADP+, 100 µM OPT lipids, pH 7.1; inactive complex
# T3 construct: gene PORB; cloned in a previous study
# T3 sequence (P21218 67-401): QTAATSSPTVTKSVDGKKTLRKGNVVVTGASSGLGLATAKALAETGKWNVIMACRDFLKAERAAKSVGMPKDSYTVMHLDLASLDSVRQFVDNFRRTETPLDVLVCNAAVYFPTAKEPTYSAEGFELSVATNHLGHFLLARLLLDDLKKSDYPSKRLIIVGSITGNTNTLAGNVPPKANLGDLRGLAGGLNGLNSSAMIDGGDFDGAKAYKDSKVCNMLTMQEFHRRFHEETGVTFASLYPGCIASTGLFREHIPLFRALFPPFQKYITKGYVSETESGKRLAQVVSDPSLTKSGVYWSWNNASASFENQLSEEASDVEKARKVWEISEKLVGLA
# T2 sequence (Q59987 whole entry): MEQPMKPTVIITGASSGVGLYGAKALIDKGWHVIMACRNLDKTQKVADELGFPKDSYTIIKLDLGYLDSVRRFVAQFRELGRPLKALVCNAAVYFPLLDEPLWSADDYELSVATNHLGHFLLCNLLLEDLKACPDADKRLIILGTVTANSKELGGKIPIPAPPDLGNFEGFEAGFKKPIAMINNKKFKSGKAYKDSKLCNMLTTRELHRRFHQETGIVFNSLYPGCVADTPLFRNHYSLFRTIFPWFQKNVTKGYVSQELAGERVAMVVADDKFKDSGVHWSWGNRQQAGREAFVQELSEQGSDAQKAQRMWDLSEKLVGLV
Structure (SMILES),Km [1],77 K fluorescence emission shift of Pchlide [2],77 K fluorescence emission shift of Pchlide [3]
NC(=O)C1=CN([C@@H]2O[C@H](COP(=O)(O)OP(=O)(O)OC[C@H]3O[C@@H](n4cnc5c(N)ncnc54)[C@H](OP(=O)(O)O)[C@@H]3O)[C@@H](O)[C@H]2O)C=CC1 [NADPH],22.6 ± 3.3 µM,–,–
NC(=O)c1ccc[n+]([C@@H]2O[C@H](COP(=O)(O)OP(=O)(O)OC[C@H]3O[C@@H](n4cnc5c(N)ncnc54)[C@H](OP(=O)(O)O)[C@@H]3O)[C@@H](O)[C@H]2O)c1 [NADP+],–,Introduction of NADP^+ into the lipid-free mixture induced further red shift,AtPORB:Pchlide can bind NADP^+ in the presence of OPT lipids
